Our source for the inhibition, IC50 and EC50 values is patent publication EP2910557A1, “Enantiopure tetrasubstituted pyrrolidines as scaffolds for proteasome inhibitors and medicinal applications thereof” (Ikerchem, S.L., priority 2014, dated 2015).

The target in experiment [1] is T1, Human erythrocyte 20S proteasome (Homo sapiens, UniProt P28074).
T1 construct: Enzyme: Human erythrocyte 20S proteasome; from tissue; host or cells: human erythrocytes
The experiment can be described thus: In vitro enzymatic assay of proteasome inhibitory activity (Suc-Leu-Leu-Val-Tyr-AMC substrate). The experiment is classed as biochemical. Conditions: for IC50: human erythrocyte 20S proteasome, 10 µM Suc-Leu-Leu-Val-Tyr-AMC, 37°C; for inhibition at 0.05 µM: Concentration 50 nM. As for the experimental part:
Example 20: In vitro enzymatic assay of proteasome inhibitory activity.
Substrate: Suc-Leu-Leu-Val-Tyr-AMC
Assay buffer: 250 mM HEPES, pH 7.5, 0.5 mM EDTA, 0.03% SDS, 0.05% Igepal CA-630.
Enzyme: Human erythrocyte 20S proteasome
In vitro proteasome inhibitory activity of the compounds of the invention is evaluated by spectrofluorimetric quantitation of AMC. Stock solutions of compounds of the invention are prepared in dimethyl sulphoxide (DMSO). Test compound and/or vehicle is preincubated with […] enzyme (human erythrocyte 20S proteasome) in modified HEPES buffer pH 7.5 and 1% final concentration of DMSO for 15 minutes at 37°C. The reaction is initiated by addition of 10 µM Suc-Leu-Leu-Val-Tyr-AMC for another 30 minutes incubation period at 37°C. Determination of the release of AMC is read spectrophotometrically (excitation, 380 nm; emission, 460 nm). IC50 values are determined by a non-linear, least squares regression analysis using MathlQTM (ID Business Solutions Ltd., UK).

The next experiment deals with BxPC-3. The experiment is described as follows: Cancer cell growth inhibition, 72 h treatment. It is filed as cell-based. To be noted: Homo sapiens. The procedure, abridged:
(§1)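 Growth inhibition was assessed after cells, cultured 24 h at 37 °C with 5% CO2, received compound at a range of final concentrations for 72 hours. Living cells were quantified by AlamarBlue fluorescence, or for indicated values by hexosaminidase activity with absorbance at 405 nm.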

A further experiment relates to CCRF-CEM. The experiment is described as follows: Cancer cell growth inhibition, 72 h treatment. It is filed as cell-based. Conditions: Homo sapiens, Hematologic CCRF-CEM, Alamar Blue. The procedure, abridged: as §1
The subject of a further experiment is DU-145. The experiment can be described thus: Cancer cell growth inhibition, 72 h treatment. The experiment is classed as cell-based. To be noted: Homo sapiens, Prostate cancer DU-145, Alamar Blue. The gist of the method:
as §1
Background: Alamar Blue is a resazurin reagent that responds to reducing activity.

The next experiment has as its system LNCaP. The experiment can be described thus: Cancer cell growth inhibition, 72 h treatment. It is filed as cell-based. To be noted: Homo sapiens, Prostate cancer LNCaP, Alamar Blue. The gist of the method:
as §1

In another experiment the test system is MDA-MB-435. The experiment is described as follows: Cancer cell growth inhibition, 72 h treatment. It is filed as cell-based. Conditions: Homo sapiens, Melanoma MDA-MB-435, Alamar Blue. The gist of the method: as §1
A further experiment concerns MDA-MB-468. The experiment is described as follows: Cancer cell growth inhibition, 72 h treatment. To be noted: Homo sapiens, Breast cancer MDA-MB-468, Alamar Blue. The experiment is classed as cell-based. The gist of the method:
as §1

The subject of another experiment is RPMI-8226. The experiment can be described thus: Cancer cell growth inhibition, 72 h treatment. To be noted: Homo sapiens, Multiple mieloma RPMI-8226, Alamar Blue. It is filed as cell-based. The gist of the method: as §1
The next experiment has as its system RWP-1. The experiment is described as follows: Cancer cell growth inhibition, 72 h treatment. It is filed as cell-based. The procedure, abridged:
as §1

A further experiment has as its system SK-Mel-28. The experiment can be described thus: Cancer cell growth inhibition, 72 h treatment. It is filed as cell-based. Conditions: Homo sapiens, Melanoma SK-Mel-28, Alamar Blue. The gist of the method: as §1
In another experiment the test system is PANC-1. The experiment can be described thus: Cancer cell growth inhibition, 72 h treatment. It is filed as cell-based. To be noted: Homo sapiens, Pancreatic cancer PANC-1, Alamar Blue. The procedure, abridged:
as §1

Setting [2] is: Pancreatic cancer BxPC-3, Alamar Blue.
Setting [3] is: Pancreatic cancer BxPC-3, Hexosaminidase assay (*).
Setting [4] is: Pancreatic cancer RWP-1, Alamar Blue.

In turn, `CC(C)C[C@H](NC(=O)[C@@H]1N[C@H](c2ccccc2)[C@@H]([N+](=O)[O-])[C@@H]1c1ccccc1)B(O)O` [Example 1, (R)-3-methyl-1-((2R,3R,4S,5R)-4-nitro-3,5-diphenylpyrrolidine-2-carboxamido)butylboronic acid] yielded an inhibition at 0.1 µM in [1] (Concentration 100 nM) of 73%. The same compound gave a concentration for half-maximal inhibition (IC50) in experiment [1] of 39 nM. Besides, the EC50 in the experiment on BxPC-3 (setting [2]) came to 4600 nM; in the experiment on CCRF-CEM, 670 nM; in the experiment with DU-145, 1900 nM; in the experiment with LNCaP, 390 nM; in the experiment with MDA-MB-435 it was 1000 nM; in the experiment with MDA-MB-468 it was 4100 nM. The half-maximal effective concentration (EC50) in the experiment with RPMI-8226 stood at 150 nM; in the experiment with RWP-1 (Pancreatic cancer RWP-1, Hexosaminidase assay (*)), 24000 nM; in the experiment on SK-Mel-28, 1300 nM.

Turning to `CC(C)C[C@H](NC(=O)[C@@H]1CCCN1)B(O)O` [MG-319, {(R)-3-methyl-1-[(S)-pyrrolidine-2-carboxamido]butyl}boronic acid, reference compound], 0.5 µM produced 25% inhibition in [1] (Concentration 500 nM). Besides, the 50% effective concentration (EC50) with BxPC-3 (setting [2]) is 33000 nM; with CCRF-CEM, 4500 nM; in the experiment on DU-145, 58000 nM; with LNCaP it was 4200 nM; with MDA-MB-435, 5300 nM; with MDA-MB-468 it was 18000 nM. Also, the half-maximal effective concentration (EC50) in the experiment with RPMI-8226 worked out at 4800 nM; in the experiment on SK-Mel-28, 10000 nM.

In [1], `CC(C)C[C@H](NC(=O)[C@@H]1N[C@H](c2ccccc2)[C@@H]([N+](=O)[O-])[C@@H]1c1ccco1)B(O)O` [Example 11, (R)-1-((2R,3R,4S,5R)-3-(furan-2-yl)-4-nitro-5-phenylpyrrolidine-2-carboxamido)-3-methylbutylboronic acid] displayed an inhibition at 0.05 µM of 81%. In addition, the midpoint of inhibition in [1], the IC50, lay at 7.55 nM. The EC50 with BxPC-3 (setting [3]) turned out to be 700 nM; in the experiment on CCRF-CEM, 52 nM; with DU-145, 570 nM; with LNCaP it was 150 nM; with MDA-MB-435, 170 nM; in the experiment with MDA-MB-468, 120 nM. The EC50 in the experiment on PANC-1 came out at 580 nM; with RPMI-8226, 60 nM; in the experiment on RWP-1 (setting [4]) it was 420 nM; with SK-Mel-28, 800 nM.

For the compound `CC(C)C[C@H](NC(=O)[C@@H]1N[C@H](c2ccccc2)[C@@H]([N+](=O)[O-])[C@@H]1c1ccc(F)cc1)B(O)O` [Example 6, (R)-1-((2R,3R,4S,5R)-3-(4-fluorophenyl)-4-nitro-5-phenylpyrrolidine-2-carboxamido)-3-methylbutylboronic acid], the inhibition at 0.05 µM in experiment [1] came out at 70%. For the same compound, the IC50 in experiment [1] was found to be 17 nM. In addition, the EC50 in the experiment on BxPC-3 (setting [3]) was found to be 5800 nM; with CCRF-CEM, 630 nM; in the experiment on DU-145, 3500 nM; with LNCaP, 1800 nM; in the experiment with MDA-MB-435, 1100 nM; with MDA-MB-468, 2200 nM. Besides, the EC50 with PANC-1 amounted to 14000 nM; in the experiment on RPMI-8226 it was 1300 nM; in the experiment with RWP-1 (setting [4]), 4400 nM; with SK-Mel-28 it was 13000 nM.

Compound `CC(C)C[C@H](NC(=O)[C@@H]1N[C@H](c2ccccc2)[C@@H]([N+](=O)[O-])[C@@H]1c1cccs1)B(O)O` [Example 10, (R)-3-methyl-1-((2R,3R,4S,5R)-4-nitro-5-phenyl-3-(thiophen-2-yl)pyrrolidine-2-carboxamido)butylboronic acid] displayed an inhibition at 0.05 µM in [1] of 79%. The IC50 in [1] is 12 nM. Also, the EC50 is 1500 nM in the experiment on BxPC-3 (setting [3]); 170 nM with CCRF-CEM; 910 nM with DU-145; 380 nM in the experiment with LNCaP; 310 nM with MDA-MB-435; 320 nM in the experiment with MDA-MB-468. Further, the EC50 in the experiment with PANC-1 was 3000 nM; in the experiment with RPMI-8226, 60 nM; in the experiment with RWP-1 (setting [4]) it was 1100 nM; in the experiment with SK-Mel-28, 1600 nM.

As to `CC(C)C[C@H](NC(=O)[C@H]1N[C@@H](c2ccccc2)[C@@H]([N+](=O)[O-])[C@@H]1c1ccccc1)B(O)O` [Example 4, (R)-3-methyl-1-((2S,3R,4S,5S)-4-nitro-3,5-diphenylpyrrolidine-2-carboxamido)butylboronic acid], testing at 0.05 µM in [1] gave an inhibition of 51%. Moreover, half-maximal inhibition in [1] (IC50) was put at 46 nM. For the same compound, the 50% effective concentration (EC50) in the experiment with BxPC-3 (setting [2]) is 2900 nM; in the experiment with CCRF-CEM, 330 nM; with DU-145, 1200 nM; in the experiment with LNCaP, 110 nM; in the experiment with MDA-MB-435, 370 nM; in the experiment with MDA-MB-468, 790 nM. Further, the values for the EC50 with RPMI-8226, with RWP-1 (setting [4]) and in the experiment with SK-Mel-28 were 270 nM, 3600 nM and 780 nM, respectively.

Compound `CC(C)C[C@H](NC(=O)[C@@H]1N[C@H](c2ccc3ccccc3c2)[C@@H]([N+](=O)[O-])[C@@H]1c1ccccc1)B(O)O` [Example 12, (R)-3-methyl-1-((2R,3R,4S,5R)-5-(naphthalen-2-yl)-4-nitro-3-phenylpyrrolidine-2-carboxamido)butylboronic acid] registered an inhibition at 0.05 µM in experiment [1] of 50%. In addition, in experiment [1], inhibition was half-maximal at 46 nM (IC50). In addition, the concentration giving a half-maximal response (EC50) amounted to 970 nM in the experiment with BxPC-3 (setting [2]); 140 nM in the experiment with CCRF-CEM; 350 nM in the experiment with DU-145; 120 nM in the experiment on LNCaP; 210 nM in the experiment with MDA-MB-435; 1000 nM with MDA-MB-468. For the same compound, the figures for the EC50 in the experiment on RPMI-8226 and in the experiment with SK-Mel-28 were 310 nM and 620 nM, respectively.

Broadly, the inhibition is the change of the read-out against control, counted positive when it falls. A lower inhibition goes with a weak effect. Broadly, the IC50 is the midpoint of a concentration-inhibition curve. A high value points to lower potency. The term EC50 denotes the concentration at which the effect is half-maximal. A high value points to a less potent agent.
